Source: PMC12526004, “Tiliroside Suppresses Uric Acid Production in Hepatocytes and Attenuates Purine-Induced Hyperuricemia in Male ICR Mice” (Molecules, 2025)

Key:
[1] = tested on: mice with purine-induced hyperuricemia; assay: Plasma UA in mice with purine-induced hyperuricemia; type: in vivo, male ICR mice; conditions: three days; for effect on plasma UA increase / effect on plasma UA levels: vs hyperuricemic control
Method: (§1) The antihyperuricemic effect of tiliroside was evaluated using mice with purine-induced hyperuricemia, following a previously described procedure. […] The test compounds were suspended in 0.2 mL of 0.5% CMC-Na based on the average body weight of each group. The actual volume administered was adjusted according to the individual body weight of each mouse. Prior to each administration, the mice were fasted for four hours. The negative and hyperuricemic control groups received the vehicle (0.5% CMC-Na) alone. […] GMP and IMP were dissolved in 0.2 mL of PBS (–) based on the average body weight of all mice. The injection volume was similarly adjusted according to each mouse’s body weight. These injections were performed one hour after the final oral administration of the test compounds or vehicle. The negative control group received PBS (–) alone. […] The liver and kidneys were then excised. Blood samples were centrifuged at 5000× g for 10 min at 4 °C to obtain plasma, which was stored at −80 °C until analysis. UA concentrations in plasma and liver homogenates were determined using the uricase-based Uric Acid C-Test Wako. Protein concentrations in the liver samples were measured with the Pierce™ BCA Protein Assay Kit. Liver UA levels were expressed as milligrams per gram of liver protein (mg/g protein).

[2] = tested on: mice with purine-induced hyperuricemia; assay: Hepatic UA level in hyperuricemic model mice; type: in vivo, male ICR mice; conditions: three days; for Hepatic UA Level: mean ± SEM
Method: as §1, with “analysis. Liver samples preparation was performed according to the methods previously described. Each portion of the liver tissue was processed for a specific analysis. One portion was homogenized in ice-cold 100 mM Tris-HCl buffer (pH 7.5), followed by sonication and centrifugation at 10,000× g for 5 min at 4 °C. The resulting supernatant was collected for the determination of UA levels. Another portion was treated similarly using Tris-HCl buffer containing 1 mM EDTA-2Na, and the supernatant was used to measure XO activity. The final portion was homogenized in ice-cold RIPA lysis buffer (Nacalai Tesque) and centrifuged under the same conditions, and the resulting supernatant was used for Western blot analysis.” for “analysis.”

[3] = target: xanthine oxidase (bovine milk-derived) (Bos taurus, UniProt P80457); assay: XO inhibition assay in vitro (UV absorbance at 295 nm); type: biochemical; conditions: xanthine substrate, 37 °C, mean of three independent experiments, read-out: IC50, direct XO inhibitory activity
Method: Prior to the assay, the compounds were freshly dissolved in a mixture of 30% dimethyl sulfoxide (DMSO; FUJIFILM Wako) and 70% phosphate buffer (100 mM, pH 7.5) to prepare test solutions at final concentrations ranging from 0 to 100 µM. In each well of a 96-well microplate, 50 µL of the test solution was mixed with 60 µL of buffer and 30 µL of xanthine oxidase (7.8 mU/mL, bovine milk-derived; Sigma-Aldrich). After preincubation at 37 °C for 10 min, the reaction was initiated by adding 60 µL of xanthine substrate (150 µM; FUJIFILM Wako). Absorbance at 295 nm was monitored for 30 min at 37 °C using a Spark 10 M microplate reader (Tecan Group Ltd., Männedorf, Switzerland). XO inhibitory activity was expressed as percentage inhibition, calculated using the formula Inhibition (%) = 100 × [1 − (B/A)], where A and B represent the absorbance increase in the absence and presence of the test compound, respectively. All measurements were performed in triplicate.
All experimental data are presented as mean ± SEM. […] Data from the in vitro XO inhibition assay are shown as mean values from three independent experiments. IC50 values were calculated by nonlinear regression analysis using dose–response curves generated from at least six concentrations of each compound. All statistical analyses were performed using GraphPad Prism version 10 (GraphPad Software, San Diego, CA, USA).

AML12 hepatocytes = assay: Cell viability, WST-8 assay; type: cell-based; conditions: concentrations up to 100 µM, 2 h
Method: The viability of AML12 cells was determined using the WST-8 assay provided in the Cell Counting Kit-8 (Dojindo Laboratories, Kumamoto, Japan). Cells were initially seeded at 5 × 10^3 cells per well in 96-well plates and maintained in DMEM/F-12 medium containing 10% (v/v) FBS for 72 h. To induce serum deprivation, the medium was replaced with serum-free DMEM/F-12, and cells were incubated for an additional 24 h. […] The treatment lasted for 2 h. Subsequently, cells were washed again with BSS and incubated with the WST-8 reagent for 1 h. Absorbance was measured at 490 nm using a microplate reader (MTP-310Lab; CORONA […] Co., Ltd., […], Japan). Cell viability was normalized to the DMSO control (0 μM), which was set at 100%.

hepatic XO = target: T1, hepatic XO (Mus musculus, UniProt Q00519); assay: Hepatic XO activity in hyperuricemic model mice; type: in vivo, male ICR mice; conditions: three days, mean ± SEM
T1 construct: 40 µL of liver homogenate was mixed with 30 µL of ice-cold 100 mM Tris-HCl buffer; from tissue; host or cells: liver of male ICR mice (homogenate supernatant)
Method: The test compounds were suspended in 0.2 mL of 0.5% CMC-Na based on the average body weight of each group. The actual volume administered was adjusted according to the individual body weight of each mouse. Prior to each administration, the mice were fasted for four hours. The negative and hyperuricemic control groups received the vehicle (0.5% CMC-Na) alone. On the third day of treatment, hyperuricemia was induced by intraperitoneal injection of guanosine monophosphate (GMP) and inosine monophosphate (IMP, both from Tokyo Chemical Industry, Tokyo, Japan), each at a dose of 300 mg/kg body weight, dissolved in PBS (–). GMP and IMP were dissolved in 0.2 mL of PBS (–) based on the average body weight of all mice. The injection volume was similarly adjusted according to each mouse’s body weight. These injections were performed one hour after the final oral administration of the test compounds or vehicle. The negative control group received PBS (–) alone. […] The liver and kidneys were then excised. Blood samples were centrifuged at 5000× g for 10 min at 4 °C to obtain plasma, which was stored at −80 °C until analysis.
Liver samples preparation was performed according to the methods previously described [27]. Each portion of the liver tissue was processed for a specific analysis. One portion was homogenized in ice-cold 100 mM Tris-HCl buffer (pH 7.5), followed by sonication and centrifugation at 10,000× g for 5 min at 4 °C. […]
Hepatic XO activity was assessed using a previously reported method [28], with slight modifications to accommodate 96-well microplate measurements [33]. […] The enzymatic reaction was initiated by adding 180 µL of xanthine solution (150 µM in the same buffer), and the absorbance at 295 nm was monitored at 37 °C for 30 min using a Spark 10 M microplate reader. UA formation was quantified based on a standard curve generated with known concentrations of UA. Protein content in the homogenates was determined using the Pierce™ BCA Protein Assay Kit, and XO activity was expressed as micromoles of UA produced per minute per milligram of protein (µmol UA/min/mg protein).

ABCC4 = assay: Renal mRNA expression, real-time quantitative PCR; type: in vivo, male ICR mice; conditions: 300 mg/kg oral, three days
Method: (§2) The antihyperuricemic effect of tiliroside was evaluated using mice with purine-induced hyperuricemia, following a previously described procedure. […] The test compounds were suspended in 0.2 mL of 0.5% CMC-Na based on the average body weight of each group. The actual volume administered was adjusted according to the individual body weight of each mouse. Prior to each administration, the mice were fasted for four hours. The negative and hyperuricemic control groups received the vehicle (0.5% CMC-Na) alone. […] GMP and IMP were dissolved in 0.2 mL of PBS (–) based on the average body weight of all mice. The injection volume was similarly adjusted according to each mouse’s body weight. These injections were performed one hour after the final oral administration of the test compounds or vehicle. The negative control group received PBS (–) alone. […] The liver and kidneys were then excised. Blood samples were centrifuged at 5000× g for 10 min at 4 °C to obtain plasma, which was stored at −80 °C until analysis. To assess renal gene expression, four mice per group were selected based on plasma UA levels approximating the group mean. Total RNA was extracted from kidney tissues of the negative control, hyperuricemic model, allopurinol-treated, and high-dose tiliroside-treated groups using the Trizol-chloroform method (Thermo Fisher Scientific). Reverse transcription was performed with 1 µg of RNA using iScript reverse transcriptase (Bio-Rad, Hercules, CA, USA). Quantitative PCR was conducted using the MyiQ2 real-time PCR system (Bio-Rad), with GAPDH as the reference gene.

ABCG2 = assay: Renal mRNA expression, real-time quantitative PCR; type: in vivo, male ICR mice; conditions: 300 mg/kg oral, three days
Method: as §2

GLUT9 = assay: Renal mRNA expression, real-time quantitative PCR; type: in vivo, male ICR mice; conditions: 300 mg/kg oral, three days
Method: as §2

XO = conditions: read-out: IC50, XO inhibition (previous report); cited from earlier work
[4] = set-up: method as in PMID 39830960; conditions: cited from earlier work
[5] = 300 mg/kg oral, hyperuricemic mice

T1 sequence (Q00519 whole entry): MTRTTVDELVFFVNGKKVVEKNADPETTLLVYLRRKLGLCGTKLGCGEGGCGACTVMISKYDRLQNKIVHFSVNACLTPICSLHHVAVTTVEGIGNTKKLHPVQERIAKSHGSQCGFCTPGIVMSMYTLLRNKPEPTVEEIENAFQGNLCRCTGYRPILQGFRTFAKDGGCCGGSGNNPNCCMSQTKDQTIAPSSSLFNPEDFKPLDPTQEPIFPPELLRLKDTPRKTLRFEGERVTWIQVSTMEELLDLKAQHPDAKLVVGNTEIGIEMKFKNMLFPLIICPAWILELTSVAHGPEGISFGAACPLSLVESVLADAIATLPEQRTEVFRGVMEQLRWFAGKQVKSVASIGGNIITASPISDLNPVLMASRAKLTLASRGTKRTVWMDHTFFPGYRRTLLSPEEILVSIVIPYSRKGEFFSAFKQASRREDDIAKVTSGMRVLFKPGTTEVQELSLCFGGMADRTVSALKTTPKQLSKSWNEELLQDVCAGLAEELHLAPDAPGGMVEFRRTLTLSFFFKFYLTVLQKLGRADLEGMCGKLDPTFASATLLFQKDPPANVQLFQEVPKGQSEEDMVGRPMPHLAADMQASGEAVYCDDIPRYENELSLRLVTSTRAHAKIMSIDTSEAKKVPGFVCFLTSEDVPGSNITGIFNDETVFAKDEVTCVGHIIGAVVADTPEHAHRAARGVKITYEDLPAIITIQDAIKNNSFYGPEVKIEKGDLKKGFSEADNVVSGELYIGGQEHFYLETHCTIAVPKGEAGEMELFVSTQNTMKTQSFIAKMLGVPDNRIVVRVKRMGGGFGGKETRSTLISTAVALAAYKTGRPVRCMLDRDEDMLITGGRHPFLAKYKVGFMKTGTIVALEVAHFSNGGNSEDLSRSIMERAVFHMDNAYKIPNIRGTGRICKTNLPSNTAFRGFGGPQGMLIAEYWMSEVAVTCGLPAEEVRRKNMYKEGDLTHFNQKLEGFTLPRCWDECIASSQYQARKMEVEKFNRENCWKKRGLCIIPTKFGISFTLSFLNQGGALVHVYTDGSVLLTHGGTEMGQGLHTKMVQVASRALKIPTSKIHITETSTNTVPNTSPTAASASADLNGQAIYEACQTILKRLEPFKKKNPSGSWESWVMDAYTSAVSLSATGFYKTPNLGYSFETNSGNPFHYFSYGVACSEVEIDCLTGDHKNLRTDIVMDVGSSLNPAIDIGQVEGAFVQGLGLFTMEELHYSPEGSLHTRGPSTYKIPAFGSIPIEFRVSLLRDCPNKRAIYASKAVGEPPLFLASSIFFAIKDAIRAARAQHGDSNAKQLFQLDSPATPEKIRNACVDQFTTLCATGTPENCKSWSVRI
Chain of xanthine oxidase (bovine milk-derived) (P80457 whole entry): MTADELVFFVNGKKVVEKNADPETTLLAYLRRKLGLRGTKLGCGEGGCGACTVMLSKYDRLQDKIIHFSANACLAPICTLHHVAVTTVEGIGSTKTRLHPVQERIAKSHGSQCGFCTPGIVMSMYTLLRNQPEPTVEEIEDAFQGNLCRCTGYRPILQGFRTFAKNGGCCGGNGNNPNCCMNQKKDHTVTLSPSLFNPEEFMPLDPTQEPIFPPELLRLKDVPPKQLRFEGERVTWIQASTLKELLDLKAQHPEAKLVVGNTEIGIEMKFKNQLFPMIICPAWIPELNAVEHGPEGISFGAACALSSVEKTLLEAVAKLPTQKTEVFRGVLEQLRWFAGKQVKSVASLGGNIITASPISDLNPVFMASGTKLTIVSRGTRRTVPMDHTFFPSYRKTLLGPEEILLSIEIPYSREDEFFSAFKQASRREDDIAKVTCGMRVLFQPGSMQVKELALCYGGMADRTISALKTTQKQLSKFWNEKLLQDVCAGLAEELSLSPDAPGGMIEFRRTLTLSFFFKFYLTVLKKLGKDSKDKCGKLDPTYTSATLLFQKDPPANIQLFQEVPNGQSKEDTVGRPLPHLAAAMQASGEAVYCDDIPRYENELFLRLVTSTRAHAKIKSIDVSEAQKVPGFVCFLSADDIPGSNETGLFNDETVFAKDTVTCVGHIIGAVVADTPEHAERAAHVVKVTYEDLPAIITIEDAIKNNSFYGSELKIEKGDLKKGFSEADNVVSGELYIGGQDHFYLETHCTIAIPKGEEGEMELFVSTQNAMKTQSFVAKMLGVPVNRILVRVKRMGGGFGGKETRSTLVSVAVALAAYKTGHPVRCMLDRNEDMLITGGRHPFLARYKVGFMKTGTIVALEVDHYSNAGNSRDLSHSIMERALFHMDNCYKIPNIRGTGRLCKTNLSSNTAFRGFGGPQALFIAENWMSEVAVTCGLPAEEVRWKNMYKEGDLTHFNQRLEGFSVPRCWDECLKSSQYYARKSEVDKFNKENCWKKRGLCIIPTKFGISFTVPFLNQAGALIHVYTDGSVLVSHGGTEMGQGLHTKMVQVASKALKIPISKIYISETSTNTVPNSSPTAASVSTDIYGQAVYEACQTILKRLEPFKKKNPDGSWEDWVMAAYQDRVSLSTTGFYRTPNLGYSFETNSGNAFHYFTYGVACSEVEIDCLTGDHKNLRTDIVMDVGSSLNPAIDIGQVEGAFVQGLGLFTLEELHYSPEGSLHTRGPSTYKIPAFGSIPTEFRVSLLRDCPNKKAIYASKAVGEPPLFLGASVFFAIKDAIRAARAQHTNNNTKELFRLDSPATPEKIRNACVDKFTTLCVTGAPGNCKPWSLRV

Row | SMILES | effect on plasma UA increase ([1]; 10 mg/kg body weight oral) | Hepatic UA Level ([2]; 10 mg/kg body weight oral) [mg/g Protein] | IC50 [3] [µM] | cytotoxic effects (cell viability) (AML12 hepatocytes) | effect on plasma UA levels ([1]; 50 mg/kg body weight oral) | effect on plasma UA levels ([1]; 100 mg/kg body weight oral) | effect on plasma UA increase ([1]; 300 mg/kg body weight oral) | lowering of plasma UA level [1, 5] | Hepatic UA Level ([2]; 50 mg/kg oral) [mg/g Protein] | Hepatic UA Level ([2]; 100 mg/kg oral) [mg/g Protein] | lowering of hepatic UA level [2, 5] [%] | Hepatic UA Level ([2]; 300 mg/kg oral) [mg/g Protein] | Hepatic XO Activity (hepatic XO; 50 mg/kg oral) [µmol UA/min/mg Protein] | Hepatic XO Activity (hepatic XO; 100 mg/kg oral) [µmol UA/min/mg Protein] | Hepatic XO Activity (hepatic XO; 300 mg/kg oral) [µmol UA/min/mg Protein] | renal ABCC4 mRNA expression (ABCC4) | renal ABCG2 mRNA expression (ABCG2) | renal GLUT9 mRNA expression (GLUT9) | IC50 (XO) [µM] | toxicity and mutagenicity [4]
1 | Oc1ncnc2[nH]ncc12 [Allopurinol, allopurinol, reference compound] | significantly reduced | 0.60 ± 0.03 |  |  |  |  |  |  |  |  |  |  |  |  |  |  |  |  |  | 
2 | O=C(/C=C/c1ccc(O)cc1)OC[C@H]1O[C@@H](Oc2c(-c3ccc(O)cc3)oc3cc(O)cc(O)c3c2=O)[C@H](O)[C@@H](O)[C@@H]1O [Tiliroside, kaempferol-3-O-(6′′-p-coumaroyl)-glucoside] |  |  | > 100 | did not exhibit any cytotoxic effects | failed to produce a statistically significant reduction | failed to produce a statistically significant reduction | significantly reduced | approximately 30% | 1.30 ± 0.16 | 1.13 ± 0.16 | ~55 | 0.79 ± 0.11 | 0.70 ± 0.08 | 0.82 ± 0.06 | 0.67 ± 0.07 | did not affect | did not affect | did not affect | > 100 | non-toxic and non-mutagenic
